{
  "source": "patent US10561658B2",
  "about": "“Thieno- and pyrrolopyrimidine analogues as anticancer agents and methods of use thereof” (UNIVERSITY OF MARYLAND, BALTIMORE COUNTY, priority 2015, dated 2020)",
  "key": {"[1]": {"target": "SRC N1 (Homo sapiens, UniProt P12931)", "assay": "Select Screen kinase profiling", "type": "biochemical", "description": "(§1) The thieno[3,2-d]pyrimidine scaffold has been used extensively in the design of kinase inhibitors."}, "[2]": {"target": "MET (cMet) (Homo sapiens, UniProt P08581)", "assay": "Select Screen kinase profiling", "type": "biochemical", "description": "as §1"}, "[3]": {"target": "TYK2 (Homo sapiens, UniProt P29597)", "assay": "Select Screen kinase profiling", "type": "biochemical", "description": "as §1"}, "[4]": {"target": "PIK3CA/PIK3R1 (Homo sapiens, UniProt P42336)", "assay": "Select Screen kinase profiling", "type": "biochemical", "description": "as §1"}, "[5]": {"target": "SRC (Homo sapiens, UniProt P12931)", "assay": "Select Screen kinase profiling", "type": "biochemical", "description": "as §1"}, "[6]": {"target": "PIK3CD/PIK3R1 (Homo sapiens, UniProt O00329)", "assay": "Select Screen kinase profiling", "type": "biochemical", "description": "as §1"}, "[7]": {"target": "JAK3 (Homo sapiens, UniProt P52333)", "sequence (P52333 whole entry)": "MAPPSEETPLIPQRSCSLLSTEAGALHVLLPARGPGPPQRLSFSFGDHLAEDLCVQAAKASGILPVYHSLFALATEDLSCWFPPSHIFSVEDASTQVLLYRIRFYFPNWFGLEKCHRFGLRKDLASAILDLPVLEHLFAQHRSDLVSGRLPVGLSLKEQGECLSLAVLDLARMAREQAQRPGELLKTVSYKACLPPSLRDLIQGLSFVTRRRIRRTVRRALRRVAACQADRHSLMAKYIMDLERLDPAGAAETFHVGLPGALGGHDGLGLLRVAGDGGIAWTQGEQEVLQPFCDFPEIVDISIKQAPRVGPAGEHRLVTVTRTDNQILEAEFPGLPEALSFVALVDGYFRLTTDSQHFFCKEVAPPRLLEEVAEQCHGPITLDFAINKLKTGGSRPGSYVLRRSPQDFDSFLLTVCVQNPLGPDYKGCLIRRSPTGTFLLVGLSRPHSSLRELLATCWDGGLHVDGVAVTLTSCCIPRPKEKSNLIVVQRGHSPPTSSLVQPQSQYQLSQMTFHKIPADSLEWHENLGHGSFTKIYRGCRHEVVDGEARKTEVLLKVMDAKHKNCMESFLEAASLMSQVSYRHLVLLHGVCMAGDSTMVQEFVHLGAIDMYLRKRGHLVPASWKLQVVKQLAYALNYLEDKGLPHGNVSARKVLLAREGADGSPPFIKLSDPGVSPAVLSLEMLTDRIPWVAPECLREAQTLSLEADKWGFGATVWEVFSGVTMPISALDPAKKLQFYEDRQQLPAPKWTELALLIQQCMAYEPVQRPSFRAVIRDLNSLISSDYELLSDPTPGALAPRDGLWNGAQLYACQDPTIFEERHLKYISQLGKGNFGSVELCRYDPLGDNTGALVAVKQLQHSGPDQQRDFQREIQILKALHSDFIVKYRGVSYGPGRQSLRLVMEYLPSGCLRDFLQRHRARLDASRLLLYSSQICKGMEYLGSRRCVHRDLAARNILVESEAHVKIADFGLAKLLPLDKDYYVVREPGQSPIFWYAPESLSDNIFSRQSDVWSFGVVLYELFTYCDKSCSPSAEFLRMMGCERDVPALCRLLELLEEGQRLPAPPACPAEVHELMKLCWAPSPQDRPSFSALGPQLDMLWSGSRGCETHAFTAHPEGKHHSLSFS", "assay": "Select Screen kinase profiling", "type": "biochemical", "description": "as §1"}, "[8]": {"target": "T1, JAK2 JHI JH2 (Homo sapiens, UniProt O60674)", "T1 construct": "JAK2 JHI JH2", "T1 sequence (O60674 532-1132 limits assumed)": "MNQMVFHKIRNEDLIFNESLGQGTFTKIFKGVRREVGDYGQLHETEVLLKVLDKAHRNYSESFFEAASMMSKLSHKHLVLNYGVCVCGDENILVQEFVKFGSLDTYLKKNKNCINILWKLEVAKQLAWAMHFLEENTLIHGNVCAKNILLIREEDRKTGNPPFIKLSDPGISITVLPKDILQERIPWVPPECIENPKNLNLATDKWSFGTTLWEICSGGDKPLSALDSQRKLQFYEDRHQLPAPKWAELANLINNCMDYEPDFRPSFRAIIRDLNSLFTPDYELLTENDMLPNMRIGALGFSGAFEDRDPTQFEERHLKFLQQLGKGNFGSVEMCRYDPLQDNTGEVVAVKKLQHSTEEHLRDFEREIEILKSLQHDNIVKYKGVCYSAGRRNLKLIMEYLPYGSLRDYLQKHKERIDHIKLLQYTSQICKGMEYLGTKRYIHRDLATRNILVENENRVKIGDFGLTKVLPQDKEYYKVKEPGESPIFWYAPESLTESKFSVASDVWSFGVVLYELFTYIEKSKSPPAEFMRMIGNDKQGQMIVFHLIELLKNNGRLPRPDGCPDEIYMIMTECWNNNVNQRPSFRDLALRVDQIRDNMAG", "assay": "Select Screen kinase profiling", "type": "biochemical", "description": "as §1"}, "[9]": {"target": "PIK3C2A (Homo sapiens, UniProt O00443)", "sequence (O00443 whole entry)": "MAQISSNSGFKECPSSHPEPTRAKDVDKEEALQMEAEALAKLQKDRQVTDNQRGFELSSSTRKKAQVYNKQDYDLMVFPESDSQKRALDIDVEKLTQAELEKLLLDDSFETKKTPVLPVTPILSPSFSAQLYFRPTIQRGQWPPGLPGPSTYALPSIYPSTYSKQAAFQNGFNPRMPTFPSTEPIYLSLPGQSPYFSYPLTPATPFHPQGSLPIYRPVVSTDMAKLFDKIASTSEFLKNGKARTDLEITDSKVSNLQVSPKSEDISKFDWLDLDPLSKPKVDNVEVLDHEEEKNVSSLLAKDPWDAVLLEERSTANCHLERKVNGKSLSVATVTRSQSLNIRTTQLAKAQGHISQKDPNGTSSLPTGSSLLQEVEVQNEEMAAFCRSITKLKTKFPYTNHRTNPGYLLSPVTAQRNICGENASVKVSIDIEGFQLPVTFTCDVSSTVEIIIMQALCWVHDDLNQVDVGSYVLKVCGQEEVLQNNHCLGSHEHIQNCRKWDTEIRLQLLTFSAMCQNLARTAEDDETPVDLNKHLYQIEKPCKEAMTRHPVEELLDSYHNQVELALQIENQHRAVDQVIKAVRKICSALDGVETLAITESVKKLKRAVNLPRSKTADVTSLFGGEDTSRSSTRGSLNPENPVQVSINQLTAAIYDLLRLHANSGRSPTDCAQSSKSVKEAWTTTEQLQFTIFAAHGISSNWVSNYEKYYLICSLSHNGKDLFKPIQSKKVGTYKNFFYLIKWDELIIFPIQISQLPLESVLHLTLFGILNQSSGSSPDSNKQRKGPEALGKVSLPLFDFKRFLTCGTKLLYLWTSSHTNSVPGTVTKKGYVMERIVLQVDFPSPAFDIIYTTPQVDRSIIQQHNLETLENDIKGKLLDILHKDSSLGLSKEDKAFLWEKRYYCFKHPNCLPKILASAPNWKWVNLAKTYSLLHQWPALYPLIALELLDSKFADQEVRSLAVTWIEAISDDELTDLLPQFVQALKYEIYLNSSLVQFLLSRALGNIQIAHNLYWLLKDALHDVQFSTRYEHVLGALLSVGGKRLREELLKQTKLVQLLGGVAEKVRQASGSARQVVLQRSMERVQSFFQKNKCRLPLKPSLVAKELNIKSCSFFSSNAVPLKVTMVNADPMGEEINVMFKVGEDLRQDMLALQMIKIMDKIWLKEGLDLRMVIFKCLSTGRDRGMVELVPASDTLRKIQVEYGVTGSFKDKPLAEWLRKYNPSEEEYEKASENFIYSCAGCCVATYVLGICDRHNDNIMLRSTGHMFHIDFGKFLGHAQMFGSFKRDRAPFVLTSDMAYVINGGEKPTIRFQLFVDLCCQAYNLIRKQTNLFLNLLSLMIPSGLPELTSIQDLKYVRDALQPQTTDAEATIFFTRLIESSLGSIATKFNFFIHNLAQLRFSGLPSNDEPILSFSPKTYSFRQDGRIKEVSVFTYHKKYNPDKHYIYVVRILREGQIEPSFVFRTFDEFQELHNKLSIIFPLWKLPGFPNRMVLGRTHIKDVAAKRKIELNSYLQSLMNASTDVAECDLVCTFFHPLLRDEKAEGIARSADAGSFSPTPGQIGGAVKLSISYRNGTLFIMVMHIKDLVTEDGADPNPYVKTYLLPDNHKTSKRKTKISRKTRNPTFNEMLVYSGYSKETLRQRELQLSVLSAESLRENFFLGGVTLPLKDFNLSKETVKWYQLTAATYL", "assay": "Select Screen kinase profiling", "type": "biochemical", "description": "as §1"}, "[10]": {"target": "PIK3C3 (Homo sapiens, UniProt Q8NEB9)", "assay": "Select Screen kinase profiling", "type": "biochemical", "description": "as §1"}, "[11]": {"target": "T2, JAK2 JH1 JH2 V617F (Homo sapiens, UniProt O60674, V617F)", "T2 construct": "JAK2 JH1 JH2 V617F", "T2 sequence (O60674 532-1132 V617F limits assumed)": "as the sequence (O60674 532-1132 limits assumed) above, with V86F counted along it", "assay": "Select Screen kinase profiling", "type": "biochemical", "description": "as §1"}, "[12]": {"target": "PIK3CG (Homo sapiens, UniProt P48736)", "assay": "Select Screen kinase profiling", "type": "biochemical", "description": "as §1"}, "[13]": {"target": "FRAP1 (mTOR) (Homo sapiens, UniProt P42345)", "assay": "Select Screen kinase profiling", "type": "biochemical", "description": "as §1"}, "[14]": {"target": "PIK3C2B (Homo sapiens, UniProt O00750)", "sequence (O00750 whole entry)": "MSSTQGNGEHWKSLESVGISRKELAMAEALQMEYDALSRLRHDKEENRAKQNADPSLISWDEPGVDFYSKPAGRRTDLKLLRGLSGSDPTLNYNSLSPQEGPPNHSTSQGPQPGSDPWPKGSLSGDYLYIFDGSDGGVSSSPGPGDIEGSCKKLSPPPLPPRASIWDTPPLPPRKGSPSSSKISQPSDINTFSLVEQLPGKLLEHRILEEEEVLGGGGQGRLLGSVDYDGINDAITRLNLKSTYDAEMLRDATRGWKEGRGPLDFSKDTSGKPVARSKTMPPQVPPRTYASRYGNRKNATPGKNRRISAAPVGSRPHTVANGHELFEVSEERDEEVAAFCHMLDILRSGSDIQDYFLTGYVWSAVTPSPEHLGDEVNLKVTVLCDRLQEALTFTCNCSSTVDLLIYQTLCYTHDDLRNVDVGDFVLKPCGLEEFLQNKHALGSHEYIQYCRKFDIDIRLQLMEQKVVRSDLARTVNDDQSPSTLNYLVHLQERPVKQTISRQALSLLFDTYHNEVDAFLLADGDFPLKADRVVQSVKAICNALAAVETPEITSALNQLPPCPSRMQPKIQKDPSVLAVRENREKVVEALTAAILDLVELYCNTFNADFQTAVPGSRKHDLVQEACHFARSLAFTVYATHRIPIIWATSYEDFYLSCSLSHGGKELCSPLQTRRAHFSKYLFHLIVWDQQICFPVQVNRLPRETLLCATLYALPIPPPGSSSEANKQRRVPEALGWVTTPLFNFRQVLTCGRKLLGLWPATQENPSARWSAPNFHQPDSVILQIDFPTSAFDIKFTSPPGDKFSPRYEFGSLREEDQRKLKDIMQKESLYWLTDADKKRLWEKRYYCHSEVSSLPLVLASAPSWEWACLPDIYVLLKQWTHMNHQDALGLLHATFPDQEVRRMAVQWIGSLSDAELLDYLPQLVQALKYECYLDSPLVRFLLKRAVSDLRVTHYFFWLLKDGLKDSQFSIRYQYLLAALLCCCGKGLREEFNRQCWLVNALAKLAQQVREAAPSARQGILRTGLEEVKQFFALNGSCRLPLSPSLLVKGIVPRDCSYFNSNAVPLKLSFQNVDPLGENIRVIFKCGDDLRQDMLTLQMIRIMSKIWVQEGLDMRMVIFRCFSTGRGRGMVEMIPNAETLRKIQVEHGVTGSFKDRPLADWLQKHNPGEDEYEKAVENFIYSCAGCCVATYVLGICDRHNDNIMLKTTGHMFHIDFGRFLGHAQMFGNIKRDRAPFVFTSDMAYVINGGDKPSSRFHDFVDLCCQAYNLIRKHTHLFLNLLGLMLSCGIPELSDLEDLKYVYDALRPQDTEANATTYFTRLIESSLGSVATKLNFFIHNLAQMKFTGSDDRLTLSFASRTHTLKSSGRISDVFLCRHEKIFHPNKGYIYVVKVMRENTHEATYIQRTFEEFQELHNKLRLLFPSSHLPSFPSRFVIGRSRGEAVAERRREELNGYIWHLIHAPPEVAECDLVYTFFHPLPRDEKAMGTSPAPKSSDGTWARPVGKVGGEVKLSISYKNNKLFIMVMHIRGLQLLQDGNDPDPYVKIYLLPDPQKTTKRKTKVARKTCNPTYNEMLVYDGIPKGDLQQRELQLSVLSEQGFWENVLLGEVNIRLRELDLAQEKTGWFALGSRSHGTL", "assay": "Select Screen kinase profiling", "type": "biochemical", "description": "as §1"}, "[15]": {"target": "PRKCN (PKD3) (Homo sapiens, UniProt O94806)", "assay": "Select Screen kinase profiling", "type": "biochemical", "description": "as §1"}, "[16]": {"tested_on": "melanoma tumor", "assay": "In vivo activity screen, intra-tumor injection", "design": "species or system mice", "conditions": "intra-tumor injection 0.01 mg/100 mm^3 tumor, 5 days on/2 days off, 21 days", "description": "The asterisk denotes […] when compared to the vehicle only (n=6-10 mice). Melanoma is viewed as resistant to nucleoside analogues, since traditional FDA-approved nucleosides have minimal effects on growth inhibition (100-90% growth percent) and apoptosis (5-10% cell death)."}, "[17]": {"tested_on": "susceptible fungal strains", "assay": "Antifungal MIC95 comparison on susceptible fungal strains", "type": "cell-based", "conditions": "MIC95, Table 3 fungal strains", "procedure": "Evaluation of antimicrobial activity in vitro. Compounds were tested against the following panel of bacteria and fungi purchased from the American Type Culture Collection (ATCC). Briefly, bacteria were grown to mid-log phase, diluted with fresh medium to an optical density at 600 nm (OD600) of 0.030-0.060 and then diluted again 1:10. This suspension (195 μL) was added to wells in a 96 well microtiter plate (Sarstedt) and 5 μL of compound dissolved in DMSO was added to give a final concentration of 100-0.1 μM at 2.5% DMSO by volume. A DMSO negative control and standard antibiotic positive controls were included in each plate. All compounds were tested in triplicate for each concentration. Plates were sealed with parafilm, placed in a Ziploc bag to prevent evaporation, and incubated at 30° C. (fungi) or 37° C. (bacteria) for 16-20 hours (48 hours for C. neoformans). The OD600 values for each well were determined with a plate reader (Biotek, EL800) and the data were standardized to the DMSO control wells after subtracting the background from blank medium. Initial single concentrations were tested at 100 μM and active compounds were further tested with at least nine concentrations for a full dose response. Dose response curves were generated using GraphPad Prism 5 software and used to determine the MIC95 concentrations (minimal concentration that inhibits 95% of growth). […]"}, "[18]": {"tested_on": "MDA-MB-231 cells", "assay": "Apoptosis (annexin V), MDA-MB-231", "type": "cell-based, human", "conditions": "MDA-MB-231, tested concentration", "procedure": "Cell-cycle and apoptosis studies were conducted in MDA-MB-231 cells. Cell-cycle analysis of compound 19 at 15 μM concentration lead to arrest of 60% cells in G2/M stage. Similarly, at 1.75 μM concentration, compound 20 arrested 30% of cells in G2/M stage. […] To evaluate the possible mechanism for arrest of cell proliferation, cell-cycle distribution was measured using propidium iodide staining and flow cytometry. […] There are several possibilities that could account for this, including: (i) that cell lysis occurs rapidly following induction of apoptosis, preventing significant accumulation of annexin V-positive bodies, or (ii) that a distinct cell death pathway is triggered by compound 19."}, "[19]": {"tested_on": "human cervix carcinoma HeLa cells", "assay": "Cell proliferation assay, HeLa", "type": "cell-based", "conditions": "72 h proliferation, Coulter counter", "procedure": "(§2) Cell proliferation assays for several of the compounds were performed on L1210, a mouse lymphocytic leukemia cell line; CCRF-CEM [39] an acute lymphoblastic leukemia cell line; and HeLa, a human cancer cell line derived from a human cervical adenocarcinoma. Murine Leukemia L1210, human lymphocytic CEM and human cervix carcinoma HeLa cells were obtained from the American Type Culture Collection (ATCC) (Rockville, Md.). All assays were performed in 96-well microtiter plates. To each well were added (5-7.5)×10^4 tumor cells and a given amount of the test compound. The cells were allowed to proliferate for 48 h (murine leukemia L1210 cells) or 72 h (human lymphocytic CEM and human cervix carcinoma HeLa cells) at 37° C. in a humidified CO2-controlled atmosphere. At the end of the incubation period, the cells were counted in a Coulter counter. The IC50 (50% inhibitory concentration) was defined as the concentration of the compound that inhibited cell proliferation by 50%. […] Presence of C7 iodine on the 2,4-dichloro pyrrolo[3,2-d] (compound 20) increases the anticancer activity by a factor of 5 when compared to compound 19. […] This alludes to a) importance of C7-I towards activity against cancer cell lines for the 2,4-O-benzylated analogues (15 and 16)."}, "[20]": {"tested_on": "human lymphocytic CEM cells", "assay": "Cell proliferation assay, CEM", "type": "cell-based", "conditions": "CCRF-CEM, 72 h proliferation, Coulter counter", "procedure": "as §2"}},
  "data": [
    {"smiles": "Clc1nc(Cl)c2sccc2n1", "note": "[Compound 1, 2,4-Dichlorothieno[3,2-d]pyrimidine]", "values": [
      {"measurement": "inhibition at 5 µM", "setting": "[1]", "value": "< 40", "unit": "%"},
      {"measurement": "inhibition at 5 µM", "setting": "[2]", "value": "< 40", "unit": "%"},
      {"measurement": "inhibition at 5 µM", "setting": "[3]", "value": "< 40", "unit": "%"},
      {"measurement": "inhibition at 5 µM", "setting": "[4]", "value": "< 40", "unit": "%"},
      {"measurement": "inhibition at 5 µM", "setting": "[5]", "value": "< 40", "unit": "%"},
      {"measurement": "inhibition at 5 µM", "setting": "[6]", "value": "< 40", "unit": "%"},
      {"measurement": "inhibition at 5 µM", "setting": "[7]", "value": "< 40", "unit": "%"},
      {"measurement": "inhibition at 5 µM", "setting": "[8]", "value": "< 40", "unit": "%"},
      {"measurement": "inhibition at 5 µM", "setting": "[9]", "value": "< 40", "unit": "%"},
      {"measurement": "inhibition at 5 µM", "setting": "[10]", "value": "< 40", "unit": "%"},
      {"measurement": "inhibition at 5 µM", "setting": "[11]", "value": "< 40", "unit": "%"},
      {"measurement": "inhibition at 5 µM", "setting": "[12]", "value": "< 40", "unit": "%"},
      {"measurement": "inhibition at 5 µM", "setting": "[13]", "value": "< 40", "unit": "%"},
      {"measurement": "inhibition at 5 µM", "setting": "[14]", "value": "< 40", "unit": "%"},
      {"measurement": "inhibition at 5 µM", "setting": "[15]", "value": "< 40", "unit": "%"},
      {"measurement": "anti-cancer activity (tumor responsiveness) in vivo", "setting": "[16]", "value": "comparable to the current standard of care, temozolomide"}
    ]},
    {"smiles": "Clc1nc(Cl)c2scc(Br)c2n1", "note": "[Compound 2, 7-Bromo-2,4-dichlorothieno[3,2-d]pyrimidine]", "values": [
      {"measurement": "times more potent than compound 1", "setting": "[17]", "value": "2-5"}
    ]},
    {"smiles": "Clc1nc(Cl)c2[nH]ccc2n1", "note": "[Compound 19, 2,4-Dichloropyrrolo[3,2-d]pyrimidine]", "values": [
      {"measurement": "annexin V-positive cells", "setting": "[18]", "value": "modest (although statistically significant) increase"},
      {"measurement": "IC50", "setting": "[19]", "value": 19, "unit": "µM"},
      {"measurement": "IC50", "setting": "[20]", "value": 25, "unit": "µM"}
    ]}
  ]
}
